Source: patent publication US12029738B2, “Antiproliferative compounds and methods of use thereof” (Celgene Corporation, priority 2017, dated 2024)
Like-named read-outs stand apart in the source and are kept apart here. Blank lines part the entries; values can stand above or below the molecule they belong to.

Assays:
dopamine D2S receptor = target: T1, dopamine D2S receptor (Homo sapiens, UniProt P14416); experiment: Dopamine D2S receptor radioligand binding (HEK-293); settings: 10 μM
T1 construct: host or cells: HEK-293 cells (membrane homogenates)
Procedure: (§1) α1 Adrenergic and Dopamine D2 Receptors. Methods: Binding and functional assays for α1 adrenergic and dopamine D2 receptors were performed by Eurofins Cerep according to their methods.
Dopamine D2 Receptor. Binding at 10 μM. The binding assay evaluated the affinity of test articles for the dopamine D2 receptor in transfected human embryonic kidney (HEK)-293 cells. For determining the binding in the D2S receptor assay, test article was incubated with 0.3 nM [^3H] methylspiperone or 1 nM [^3H] 7-hydroxy-2-N,N-dipropylaminotetralin (7-OH-DPAT). [3H] Methylspiperone at 0.3 nM also was used as control ligand in the D2L binding assay. Cell membrane homogenates were incubated in duplicate at room temperature for 60 minutes with ligand in the absence or presence of test articles at 10 μM. After the incubation period, samples were filtered through glass fiber filters, the filters dried and then counted for radioactivity using a scintillation counter. Results are expressed as mean percent inhibition of control radioligand binding.
Binding IC50. To determine the binding IC50 in the D2 receptor assays, HEK-293 were tested as described above but with varying concentrations of test article. Compound A was tested at 0.01-30 μM in the D2S radioligand binding assay. […] Compound 1 was assayed at 0.03-100 μM in both the D2S and D2L assays, while Compound 2 was tested at 0.03-100 μM in the D2S assay and 0.01-100 μM in the D2L assays. The IC50 was defined as the concentration causing a half-maximum inhibition of control specific binding.

[1] = tested on: non-selective α1 adrenergic receptor; experiment: α1 adrenergic receptor radioligand binding ([3H]prazosin); settings: 10 μM; rat cerebral cortex; 0.25 nM [3H]prazosin
Procedure: as §1
α1 Adrenergic Receptor. Binding at 10 μM. The binding assay evaluated the affinity of test article for the non-selective α1 adrenergic receptor in rat cerebral cortex. Membrane homogenates of cerebral cortex were incubated in duplicate for 60 minutes at room temperature with 0.25 nM [^3H]prazosin in the absence or presence of test articles at 10 μM. After the incubation period, samples were filtered through glass fiber filters, the filters dried and then counted for radioactivity using a scintillation counter. Results are expressed as mean percent inhibition of control radioligand binding.
Binding IC50. […] Compound A was tested at 0.01-30 μM. […] Compound 1 and Compound 2, the S-enantiomer of Compound 1, were assayed at 0.03-100 μM. Radioactivity was measured as described above. The IC50 was defined as the concentration causing a half-maximum inhibition of control specific binding.

[2] = tested on: MM cell lines H929-1051, KMS11, KMS-12PE, L363, OPM-P10, RPMI8226; experiment: Combination with small molecule inhibitors, synergy (Cell Titer-Glo, 3 days); assay type: cell-based, human; settings: Highest Single Agent method, 6 MM cell lines
Procedure: The effect of combining treatment with Compound 2 and small molecule inhibitors with various mechanisms was evaluated in a panel of MM cell lines. Thirteen small molecule inhibitors were selected for combination studies with Compound 2 based on their preclinical and/or activity against MM. The cell lines H929-1051, KMS11, KMS-12PE, L363, OPM-P10, and RPMI8226 were selected for this study to represent the different genetic clustering groups across MM cell lines. […] Combination agents were dosed in a 6 point dose-response curve (DRC) at a 1:3 dilution, Compound 2 was dosed in a 10 point DRC, also at a 1:3 dilution. The combination experiments were run twice, each time with replicate data on separate plates. Compounds were pre-spotted into the appropriate wells of 384-well plates using an acoustic dispenser. All MM cell lines were cultured in an incubator at 37° C. with 5% CO2 using the indicated cell culture media containing 1× Penicillin-Streptomycin. Cells were added to the compound containing 384-well plates using a Multidrop Combi Reagent Dispenser and allowed to incubate for 3 days at 37° C. with 5% CO2. After 3 days, cells were assessed for their level of ATP content via Cell Titer-Glo measured on a luminescence detector (PerkinElmer Envision).
The Highest Single Agent (HAS) method was used to detect synergy in the dose response curve data. Combinations were analyzed from a response surface perspective. A statistical framework (Van Der Borght, K., et al., BIGL: Biochemically Intuitive Generalized Loewe null model for prediction of the expected combined effect compatible with partial agonism and antagonism; Scientific Reports, 7 (1), 17935-1-17935-9 (2017)) was incorporated into the analysis on top of the HAS null model with two statistical tests: 1) Complete response surface differs from null model, 2) Single well differs from null model.

K562 cells = experiment: Coculture of compound-treated IL-2-activated PBMCs with K562 cells; assay type: cell-based, human; settings: Homo sapiens, K562; IL-2-activated PBMCs treated 72 h; 4 h coculture; read-out: IC50 of compound-treated PBMCs for direct K562 cell killing
Procedure: Coculture Experiments with Peripheral Blood Mononuclear Cells and K562 Cells. Methods: Human Peripheral Blood Mononuclear Cell (PBMC) Preparation: PBMCs isolated from healthy donors were cultured in RPMI 1640 medium with 10% FBS at a density of 1×10^6 cells/mL.
Cell Culture: K562 cells were kept in log phase, and cell density and viability were monitored by trypan blue exclusion using the Vi-CELL® XR cell viability analyzer (Beckman Coulter, Brea, CA).
Assay Procedures: Freshly isolated human PBMCs were cultured with recombinant IL-2 at concentration of 20 units/mL for 72 h. Peripheral blood mononuclear cells were then spun down and re-suspended in fresh RPMI complete medium to 2×10^6 cells/mL. Cells were then treated with DMSO or compounds at the indicated concentrations and incubated for an additional 72 h. The PBMCs were then washed twice in fresh RPMI complete medium prior to coculture. K562 cells were re-suspended to a cell density of 1×10^6/mL and stained with 1 μM CellTrace CFSE according to manufacturer's instructions. The labeled K562 cells were then seeded into a 96-well round bottom plate at 1×10^5 cells/well. Peripheral blood mononuclear cells were then transferred into the same 96-well plate at a 1:15 ratio, in triplicate and incubated at 37° C. for 4 h. Specific target cell lysis by PBMC cells was measured using Annexin V-fluorescein isothiocyanate (FITC) and propidium iodide (PI) according to manufacturer's instructions and samples were run on the FACS Array scan. Non-labeled K562 cells, CellTrace CFSE-labeled K562 cells, and Annexin V-FITC- and PI labeled untreated K562 cells were included in each assay as controls.

H929-1051 = experiment: PBMC and MM cell treatment assay (single culture vs co-culture); assay type: cell-based, human; settings: Homo sapiens, PBMC, H929-1051, read-out: Immune-mediated Cell Killing IC50
Procedure: (§2) PBMC and MM Cell Treatment Assay Procedure. Ninety-six-well dishes were pre-coated with anti-CD3 antibody (OKT3, 3 μg/mL) and incubated at 4° C. overnight before the start of the experiment. Frozen PBMC donor cells were thawed at 37° C. for 2 minutes in RPMI medium with 10% FBS and cell counts and viability were measured on the Vi-CELL analyzer. Peripheral blood mononuclear cells were washed and diluted to 1×10^6 cells/mL and dispensed into the compound-treated plates in a total volume of 200 μL. Cells were incubated with compounds for 2 h before being transferred onto anti-CD3-coated plates and incubated for an additional 72 h. At the same time, MM cell lines (NCI-H929, H929-1051, OPM2, OPM2-P10) were diluted to a final concentration of 0.1×10^6 cells/mL and labeled with CellTrace CFSE according to manufacturer's instructions. Multiple myeloma cell lines were then dispensed into compound-treated plates at a total volume of 200 μL and incubated for 72 h. After 72 h, the PBMCs and MM cells were counted and transferred into a U-bottom 96-well plate at a final T:E ratio of 1:5. After 24 h coculture, specific target cell lysis by PBMC cells was measured using Annexin V-AF647 and 7-AAD according to manufacturer's instructions and samples were run on the Attune NxT Cytometer.
(§3) Because preincubation of immune cells with Compound 2 enhanced the targeting and lysing of MM cells, the effect of preincubation of MM cells with Compound 2 on their susceptibility to immune-mediated killing was also explored (FIG. 16A, FIG. 16B, FIG. 16C, and FIG. 16D, Table 12). Four MM cell lines and anti-CD3 antibody-activated PBMCs were separately preincubated with Compound 2, lenalidomide, or pomalidomide for 72 h. When anti-CD3 antibody-activated PBMCs and MM lines were both pretreated with Compound 2, lenalidomide, or pomalidomide, followed by co-culture, the effects on the PBMC-induced MM cell lysis were enhanced both in the potency and magnitude of the killing response. […] For the pomalidomide-resistant OPM2-P10 cell line, Compound 2 treatment of the MM cells enhanced the immune-mediated killing by ˜3000-fold (Table 12).

NCI-H929 = experiment: as above; assay type: cell-based, human; settings: Homo sapiens, NCI-H929, NCI-H929, read-out: Immune-mediated Cell Killing IC50
Procedure: as §2, §3

OPM2-P10 = experiment: as above; assay type: cell-based, human; settings: Homo sapiens, PBMC, read-out: Immune-mediated Cell Killing IC50
Procedure: as §2, §3

OPM2 = experiment: as above; assay type: cell-based; settings: Homo sapiens, OPM-2, OPM2, read-out: Immune-mediated Cell Killing IC50
Procedure: as §2, §3

RPMI-8226 = experiment: as above; assay type: cell-based; settings: Homo sapiens, RPMI-8226, RPMI-8226, read-out: Immune-mediated Cell Killing IC50

T1 sequence (P14416 1-414 isoform P14416-2): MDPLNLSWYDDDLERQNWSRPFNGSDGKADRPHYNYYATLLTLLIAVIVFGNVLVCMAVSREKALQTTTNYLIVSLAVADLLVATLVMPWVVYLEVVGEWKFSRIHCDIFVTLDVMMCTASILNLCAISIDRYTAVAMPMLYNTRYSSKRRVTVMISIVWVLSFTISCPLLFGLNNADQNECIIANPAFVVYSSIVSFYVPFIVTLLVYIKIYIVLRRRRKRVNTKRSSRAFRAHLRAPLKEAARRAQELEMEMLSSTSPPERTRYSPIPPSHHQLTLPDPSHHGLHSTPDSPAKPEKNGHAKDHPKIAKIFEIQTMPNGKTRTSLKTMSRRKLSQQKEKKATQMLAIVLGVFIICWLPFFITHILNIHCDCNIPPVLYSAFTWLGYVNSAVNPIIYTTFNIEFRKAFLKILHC

- Dopamine D2S % Inhibition (10 μM) (dopamine D2S receptor): 98.7%
Molecule: O=C1CCC(N2Cc3c(OCc4ccc(CN5CCN(c6ccccc6)CC5)cc4)cccc3C2=O)C(=O)N1 (racemic) [Ex. 5.229]

- Adrenergic α1 (non-selective) % Inhibition (10 μM) [1]: 100.3%
- Dopamine D2S % Inhibition (10 μM) (dopamine D2S receptor): 94.7%
Molecule: O=C1CCC(N2Cc3c(OCc4ccc(CN5CCN(c6ccc(F)cc6)CC5)cc4)cccc3C2=O)C(=O)N1 (racemic) [Ex. 5.273]

- Dopamine D2S % Inhibition (10 μM) (dopamine D2S receptor): 92.4%
Molecule: O=C1CCC(N2C(=O)c3cccc(OCc4ccc(CN5CCN(c6ccc(F)cc6)CC5)cc4)c3C2=O)C(=O)N1 (racemic) [Ex. 5.289]

Molecule: O=C(CCCCCCNC(=O)c1cnc(N(c2ccccc2)c2ccccc2Cl)nc1)NO [ACY241]
- synergistic activity in combination with Compound 2 (cell lines) [2]: synergistic in L363/OPM2-P10

Molecule: CO[C@H]1/C=C/C[C@H](C)[C@@H](C)S(=O)(=O)NC(=O)c2ccc3c(c2)N(C[C@@H]2CC[C@H]21)C[C@@]1(CCCc2cc(Cl)ccc21)CO3 [AMG176]
- synergistic activity in combination with Compound 2 (cell lines) [2]: synergistic activity in three cell lines (KMS11, KMS12-PE, L363)

Molecule: Cn1cc(-c2cc(S(C)(=O)=O)ccc2OCC2CC2)c2ccccc2c1=O [Compound D, 4-[2-(cyclopropylmethoxy)-5-(methanesulfonyl)phenyl]-2-methylisoquinolin-1(2H)-one]
- synergistic activity in combination with Compound 2 (cell lines) [2]: synergistic activity in the MM cells

Molecule: COc1ccc(-c2c(-c3ccc(C#N)c(F)c3)nc(N3CCC(N)CC3)n(C)c2=O)cc1F [Compound E, 4-[2-(4-amino-piperidin-1-yl)-5-(3-fluoro-4-methoxy-phenyl)-1-methyl-6-oxo-1,6-dihydropyrimidin-4-yl]-2-fluoro-benzonitrile]
- synergistic activity in combination with Compound 2 (cell lines) [2]: synergistic in L363 and KMS12-PE cells

Molecule: Nc1cccc2c1CN(C1CCC(=O)NC1=O)C2=O (stereo not drawn) [Lenalidomide, lenalidomide]
- IC50 (K562 cells): 20 nM
- IC50 (H929-1051; Co-culture with PBMCs): 878 nM
- IC50 (H929-1051; Single culture): > 10000 nM
- IC50 (NCI-H929; Co-culture with PBMCs): 317 nM
- IC50 (NCI-H929; Single culture): > 10000 nM
- IC50 (OPM2-P10; Co-culture with PBMCs): 8090 nM
- IC50 (OPM2-P10; Single culture): > 10000 nM
- IC50 (OPM2; Co-culture with PBMCs): 1720 nM
- IC50 (OPM2; Single culture): > 10000 nM
- IC50 (RPMI-8226; Co-culture with PBMCs): 124 nM
- IC50 (RPMI-8226; Single culture): > 10000 nM

Molecule: Cc1sc2c(c1C)C(c1ccc(Cl)cc1)=N[C@@H](CC(=O)Nc1ccc(O)cc1)c1nnc(C)n1-2 [birabresib]
- synergistic activity in combination with Compound 2 (cell lines) [2]: synergistic activity in the MM cells

Molecule: MIK665
- synergistic activity in combination with Compound 2 (cell lines) [2]: did not show significant synergy in the 6 MM cell lines tested
